Data taken from patent publication US20220409578A1, “FUNCTIONALIZED 1,3-BENZENE DIOLS AND THEIR METHOD OF USE FOR THE TREATMENT OF RADIATION DERMATITIS AND OTHER SKIN DISORDERS” (KANNALIFE SCIENCES, INC., priority 2019, published 2022).

Assays:
[1] = Antioxidant capacity (ABTS/metmyoglobin assay); type: biochemical; settings: OD 750 nm, 15 minutes after hydrogen peroxide
Description: Antioxidant capacity: The purpose of this study was to evaluate the overall antioxidant capacity of KLS-13022 for the ability to inhibit the oxidation of ABTS. (2,2′-Azino-di-[3-ethylbenzthiazoline sulphonate]) to ABTS.^+ by metmyoglobin. Ascorbic acid (Vitamin C) was used as positive antioxidant control in the assay. The testing involved the suppression of optical density (OD) at 750 nm to a degree, which is proportional to an effective oxidation inhibition. Neat solutions were prepared for materials formulated in HPLC-grade water (ascorbic acid) or 200-proof ethanol (KLS-13022). Serial dilutions were prepared for each material and mixed with metmyoglobin enzyme in assay buffer solution. All samples were compared to vehicle-only treated samples used as negative oxidation inhibition. Optical density changes at 750 nm were evaluated 15 minutes after addition of hydrogen peroxide to each sample. Average absorbance was calculated and plotted for each sample concentration. Effective antioxidant inhibition activity based on the change of absorbance of blank (vehicle-only) sample (no material added). […] The Antioxidant assay kit was obtained from Cayman Chemical Co. (Ann Arbor, Mich.). The assay consisted in the evaluation of the overall antioxidant capacity of test materials for the ability to inhibit the oxidation of ABTS. to ABTS.^+ by metmyoglobin. […]

[2] = system: human 3D skin-like EPIDERM; settings: 1 h
[3] = system: human 3D cornea-like EPIOCULAR; assay: Eye irritation, EPIOCULAR reconstructed cornea-like model, OECD 492 (MTT); type: cell-based; settings: human, 30 min
Description: Ocular irritancy: The purpose of this study was to evaluate any potential ocular irritation activity of KLS-13022 formulations compared to vehicle-only treated tissues in vitro on human 3D cornea-like EPIOCULAR by topical application according to OECD 492 protocol. Test formulations of KLS-13022 up to 3% w/v in 60:40 ethanol:water vehicle were prepared fresh before use. EPIOCULAR tissues were acclimated before treatments for 24 hours and later treated topically for 30 minutes with KLS-13022 (0.01, 0.1, 0.3 1, 3% w/v). Methyl acetate was used as positive eye irritant control. Tissue viability levels were measured by MTT reduction assay method after material treatments. The levels of tissue viability after each material treatment was compared to vehicle control group to determine any potential ocular irritation activity.
Average levels of tissue viability were calculated for each treatment group. According to OECD 492 protocol, predicted positive eye irritation activities were determined when obtaining <60% tissue viability. […] Primary cornea-like inserts were used from human origin and purchased from MatTek (Ashland, Mass.). […] Tissues were cultured with standard conditions (37° C., 95% v/v air, 5% v/v CO2) and acclimated for 18+3 hours before dosing procedures.

[4] = type: in vitro ADME, porcine
Description: Percutaneous absorption (Franz cell). For these studies, porcine ear skin (n=3; 1.5 in^2) obtained from Animal Technologies, Inc. (Tyler, T X) were utilized, Skins were thawed for 30 min at room temperature. After thawing, skin was placed over receptor compartment of the unjacketed Franz cell chamber with stir bar obtained from Permegear and covered with the donor compartment. The clamp was then placed to hold the cell together. The receptor compartment was filled with 12 mL of 1M PBS buffer+4% BSA and 0.1% sodium azide through the sampling port using a syringe. Franz cell was placed on a stir plate at ˜600 RPM and heated till the buffer reached 37° C. 400 μL of 3H—H2O (˜1.5 million counts) was then placed on the membrane for 5 min. […] After 30 min, 250 μL of the receptor buffer was removed in triplicate and counted to check the integrity of the skin (>0.4 μl/cm^2 was considered acceptable). […] Extraction and homogenization were performed to quantify the amount of formulation remaining in the epidermis and dermis. […] The concentration of KLS-13022 was measured by liquid chromatography coupled with tandem mass spectrometry (LC/MS/MS). […] The analytes and internal standard were detected using an Applied Biosystem API-3000 mass spectrometer equipped with a Turbo-Ion Spray (Electrospray, ESI) source that was operated in multiple reaction monitoring mode (MRM) under positive ion mode.

C=C(C)[C@@H]1CCC(C)=C[C@H]1c1c(O)cc(CC2CN(C(=O)OCC)C2)cc1O [KLS-13022, ethyl 3-(3,5-dihydroxy-4-((1R,6R)-3-methyl-6-(prop-1-en-2-yl)cyclohex-2-enyl)benzyl)azetidine-1-carboxylate]
EC50 [1]: 25.6 µM
tissue viability [2]: ≥ 50%
tissue viability [3]: ≥ 60%
penetration into receptor solution [4]: not into the receptor solution
amount in epidermis/dermis (viable skin) ([4]; pig, 24 h, 1 % w/v): 0.324%
